{"source": "patent US20020177625A1", "about": "“Class of glaucoma drugs to enhance aqueous humor outflow and lower intra-ocular pressure” (The Regents of the University of California, a California …, priority 2001, published 2002)", "key": {"Na—K—Cl co-transporter": {"molecular_target": "T1, Na—K—Cl co-transporter (Homo sapiens, UniProt P55011)", "T1 construct": "endogenous in cells; host or cells: cultured human trabecular meshwork (TM) cells, normal or glaucomatous donors", "T1 sequence (P55011 1-1212)": "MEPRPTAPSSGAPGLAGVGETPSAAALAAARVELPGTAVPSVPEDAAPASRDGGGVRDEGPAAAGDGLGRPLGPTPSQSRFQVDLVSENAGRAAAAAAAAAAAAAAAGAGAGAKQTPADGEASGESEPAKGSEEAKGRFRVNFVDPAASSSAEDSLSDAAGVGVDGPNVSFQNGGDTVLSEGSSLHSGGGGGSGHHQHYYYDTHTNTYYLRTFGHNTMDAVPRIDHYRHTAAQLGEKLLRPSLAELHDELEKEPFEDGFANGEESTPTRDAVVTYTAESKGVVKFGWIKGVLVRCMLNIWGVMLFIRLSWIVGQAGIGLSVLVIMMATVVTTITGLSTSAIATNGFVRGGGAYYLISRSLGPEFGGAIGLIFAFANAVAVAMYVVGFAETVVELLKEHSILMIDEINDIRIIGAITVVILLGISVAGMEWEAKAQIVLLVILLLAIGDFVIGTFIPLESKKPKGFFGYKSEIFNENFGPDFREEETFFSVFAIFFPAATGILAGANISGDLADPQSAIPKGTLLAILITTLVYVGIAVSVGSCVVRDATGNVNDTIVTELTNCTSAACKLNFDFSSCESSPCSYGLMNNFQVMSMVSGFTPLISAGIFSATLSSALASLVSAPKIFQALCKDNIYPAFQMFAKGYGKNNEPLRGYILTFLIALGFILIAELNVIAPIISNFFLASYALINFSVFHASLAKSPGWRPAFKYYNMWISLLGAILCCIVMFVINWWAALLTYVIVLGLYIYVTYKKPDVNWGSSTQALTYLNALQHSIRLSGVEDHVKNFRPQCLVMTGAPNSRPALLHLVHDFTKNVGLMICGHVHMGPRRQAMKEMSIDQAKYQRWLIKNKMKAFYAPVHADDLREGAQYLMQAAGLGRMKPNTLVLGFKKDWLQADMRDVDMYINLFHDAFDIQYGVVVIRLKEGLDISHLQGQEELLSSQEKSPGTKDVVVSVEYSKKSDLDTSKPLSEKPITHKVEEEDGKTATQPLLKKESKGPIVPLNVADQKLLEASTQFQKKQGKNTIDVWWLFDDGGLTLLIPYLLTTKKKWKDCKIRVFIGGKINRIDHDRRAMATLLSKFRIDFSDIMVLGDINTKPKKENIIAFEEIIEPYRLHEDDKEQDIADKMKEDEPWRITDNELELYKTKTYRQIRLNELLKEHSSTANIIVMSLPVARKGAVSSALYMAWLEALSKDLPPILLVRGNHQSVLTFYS", "assay": "Na—K—Cl co-transport measured as bumetamide-sensitive K influx (86Rb tracer) in human TM cell monolayers", "format": "cell-based", "conditions": "human TM cells", "protocol": "Na—K—Cl co-transport was measured as ouabain-insensitive, bumetamide-sensitive potassium influx, using ^86Rb as a tracer for potassium. […] The assay medium also contained ^86Rb (1 μCi/ml) (Dupont New England Nuclear, Boston, Mass.). The assay was terminated by rinsing the wells with ice-cold isotonic MgCl2, then extracting the contents with 0.2% sodium dodecyl sulfate (SDS), and determining the amount of radioactive contents by liquid scintillation. Osmolarities of all preincubation and assay media were verified by osmometry (Model 3W2, Advanced Instruments, Norwood, Mass.).\nThe cells were pretreated with Hepes-buffered minimal essential medium (MEM) ±10 μM bumetamide ±1 mM ouabain for 5 min, then assayed for 5 min in the same media plus ^86Rb. […] Data are means ±SEM, n=12.\nNa—K—Cl co-transport activity of glaucomatous human TM cells was assessed as ouabain-insensitive, bumetamide-sensitive K influx, using ^86Rb as a tracer for K, as described previously. TM cells were preincubated for 5 minutes in a Hepes-buffered MEM containing 0 or 10 μM bumetamide in the presence of 1 mM ouabain, followed by a 5 minute assay in media of identical composition except that they also contained ^86Rb. […] Data are mean values ±SEM in seven normal TM cultures (donor age range, 38-68 years, n=12 in each cell culture) and in seven glaucomatous cultures (donor age range 41-75 years, n=7 in each cell culture).\nHuman TM cells were equilibrated in Hepes-buffered MEM for 30 minutes and then pretreated for 5 minutes in media containing 1 mM ouabain, 10 or 0 μM bumetamide, and 0.3 μM to 1 mM niflumic acid (NA). Cells were then assayed for bumetamide-sensitive K influx for 5 minutes in media identical to the pretreatment media but also containing ^86Rb (1 μCi/ml). […] Dashed line indicates control level of Na—K—Cl co-transport. Data are means ±SEM of at least 4 determinations from 3 experiments."}, "TM cells": {"test_system": "TM cells", "assay": "Intracellular [Cl] of TM cells", "format": "cell-based", "conditions": "niflumic acid 100 μM"}}, "data": [{"smiles": "O=C(O)c1cccnc1Nc1cccc(C(F)(F)F)c1", "note": "[niflumic acid]", "values": [{"measurement": "K influx value versus 0 mM NA control", "setting": "Na—K—Cl co-transporter; niflumic acid 0.1 μM", "value": "not significantly different"}, {"measurement": "Na—K—Cl co-transporter activity", "setting": "Na—K—Cl co-transporter; niflumic acid 0.3 μM to 100 μM", "value": "significantly stimulate"}, {"measurement": "intracellular [Cl] of the TM cells", "setting": "TM cells", "value": "significantly reduced"}]}]}
